Measured values reported in patent publication US20140242093A1, “METHODS AND COMPOSITIONS FOR MODULATING THE INNATE IMMUNE RESPONSE AND/OR MYOGENESIS IN A MAMMALIAN SUBJECT” (FRED HUTCHINSON CANCER RESEARCH CENTER, priority 2011, published 2014).

Tested on: control human primary myoblasts
Test: Expression microarray of primary myoblasts transduced with lentivirus carrying DUX4-fl, DUX4-s or GFP
Method: Primary human myoblasts were collected and cultured as previously described (Snider et al., 2010). Primary myoblasts were maintained at or below 70% confluency for proliferation. For differentiation, cells were allowed to reach 95-100% confluency in growth medium. Once confluency was reached, the cells were changed to differentiation medium (F10 media supplemented with 1% horse serum, 10 μg/mL insulin, and 10 μg/mL transferrin, penicillin/streptomycin) and maintained for 4 days. Human RD cells were grown in DMEM in 10% bovine calf serum (Hyclone) and penicillin/streptomycin. The primary myoblasts were transduced with lentivirus carrying DUX-fl, DUX4- or GFP (MOI=15).
Expression microarrays were performed on the transduced cells at 24 hours after transduction as follows. […] Samples were analyzed by Illumina Human Whole Genome microarrays. Probe intensities were corrected, normalized, and summarized by the Lumi package of Bioconductor (Du et al., 2008). Differentially expressed genes were identified by the LIMMA package of Bioconductor (Wettenhall and Smyth, 2004). Gene set enrichment analysis (GSEA) was performed using the Bioconductor GOstats package (Falcon and Gentleman, 2007).

Question: Which “fc of MYPOP (expression array)” value (Refseq NM_001012643.2) does the source give for “DUX4-fl: full-length DUX4 protein (SEQ ID NO:110), expressed from lentiviral or pCS2 vectors or in vitro translated” here?
Answer: −1.053

Question: What about the PRAMEF5 expression fc (Refseq NM_001013407.1) of the same substance?
Answer: 7.35

Question: And the HNRNPCL1 expression fc (Refseq NM_001013631.1)?
Answer: 3.484

Question: And the RFPL4B expression fc (Refseq NM_001013734.2)?
Answer: 8.34

Question: And the ODF3B fc (Refseq NM_001014440.2)?
Answer: −1.1

Question: What about the DNAJC25 expression fc (Refseq NM_001015882.2) of the same substance?
Answer: 1.995

Question: And the KCNK2 fc (Refseq NM_001017425.2)?
Answer: −1.154

Question: And the CCDC58 expression fc (Refseq NM_001017928.2)?
Answer: 2.001

Question: And the “fc of ATP6AP1L (expression array)” value (Refseq NM_001017971.1)?
Answer: −1.049

Question: What about the SH3PXD2B fc (Refseq NM_001017995.1) of the same substance?
Answer: −1.101

Question: And the ZBTB16 expression fc (Refseq NM_001018011.1, cultured human skeletal muscle)?
Answer: −2.037

Question: What about the “fc of SERBP1 (expression array)” value (Refseq NM_001018069.1) of the same substance?
Answer: −0.241

Question: And the SOD2 expression fc (Refseq NM_001024466.1, cultured human skeletal muscle)?
Answer: −4.617

Question: And the “fc of RUNX2 (expression array)” value (Refseq NM_001024630.2)?
Answer: −1.019

Question: What about the CLK1 expression fc (Refseq NM_001024646.1) of the same substance?
Answer: 1.84

Question: And the “fc of TGFBR2 (expression array)” value (Refseq NM_001024847.1)?
Answer: −1.017

Question: And the TSPAN4 fc (Refseq NM_001025235.1)?
Answer: −1.175

Question: What about the “fc of RFX5 (expression array)” value (Refseq NM_001025603.1) of the same substance?
Answer: −1.052

Question: What about the PSRC1 fc (Refseq NM_001032290.1) of the same substance?
Answer: −1.126

Question: And the OAS1 expression fc (Refseq NM_001032409.1, cultured human skeletal muscle)?
Answer: −4.607

Question: What about the ENTPD8 expression fc (Refseq NM_001033113.1) of the same substance?
Answer: 4.073

Question: What about the RHOT1 fc (Refseq NM_001033566.1) of the same substance?
Answer: −1.074

Question: What about the CYFIP2 fc (Refseq NM_001037333.1) of the same substance?
Answer: −1.081

Question: What about the “fc of PHYH (expression array)” value (Refseq NM_001037537.1) of the same substance?
Answer: −1.007

Question: And the “fc of EFEMP1 (expression array)” value (Refseq NM_001039348.1)?
Answer: −1.03

Question: What about the PRAMEF10 expression fc (Refseq NM_001039361.1) of the same substance?
Answer: 6.064

Question: What about the ETNK1 expression fc (Refseq NM_001039481.1) of the same substance?
Answer: 1.892

Question: And the LOC440053 expression fc (Refseq NM_001039615.1)?
Answer: 3.919

Question: And the CBLN3 fc (Refseq NM_001039771.2)?
Answer: −1.144

Question: What about the HEY1 expression fc (Refseq NM_001040708.1) of the same substance?
Answer: 2.18

Question: And the “fc of UHRF1 (expression array)” value (Refseq NM_001048201.1)?
Answer: −0.2091

Question: What about the DBNDD2 expression fc (Refseq NM_001048223.1) of the same substance?
Answer: 2.987

Question: What about the NCOR2 fc (Refseq NM_001077261.1) of the same substance?
Answer: −1.177

Question: And the “fc of NFKB2 (expression array)” value (Refseq NM_001077493.1)?
Answer: −1.011

Question: And the “fc of SLC29A1 (expression array)” value (Refseq NM_001078174.1)?
Answer: −0.5111

Question: What about the DYNC2H1 expression fc (Refseq NM_001080463.1) of the same substance?
Answer: 3.721

Question: And the PRAMEF12 expression fc (Refseq NM_001080830.1)?
Answer: 7.802

Question: And the FRG2B expression fc (Refseq NM_001080998.1)?
Answer: 1.993

Question: What about the DEFB103A expression fc (Refseq NM_001081551.2) of the same substance?
Answer: 6.442

Question: What about the CPSF4 fc (Refseq NM_001081559.1) of the same substance?
Answer: −1.171

Question: What about the “fc of GPD2 (expression array)” value (Refseq NM_001083112.1) of the same substance?
Answer: −0.3652

Question: What about the “fc of GPR1 (expression array)” value (Refseq NM_001098199.1) of the same substance?
Answer: −1.054

Question: What about the HLA-F expression fc (Refseq NM_001098479.1, cultured human skeletal muscle) of the same substance?
Answer: −1.932

Question: And the RFPL3 expression fc (Refseq NM_001098535.1)?
Answer: 8.144

Question: And the PRR4 expression fc (Refseq NM_001098538.1)?
Answer: 3.562

Question: What about the FAM156B fc (Refseq NM_001099684.1) of the same substance?
Answer: −1.113

Question: And the PRAMEF19 expression fc (Refseq NM_001099790.1)?
Answer: 2.336

Question: And the PRAMEF20 expression fc (Refseq NM_001099852.1)?
Answer: 4.795

Question: What about the PRAMEF14 expression fc (Refseq NM_001099854.1) of the same substance?
Answer: 3.186

Question: And the PRAMEF21 expression fc (Refseq NM_001100114.1)?
Answer: 2.487

Question: And the LOC729384 expression fc (Refseq NM_001105522.1)?
Answer: 6.832

Question: And the KHDC1L expression fc (Refseq NM_001126063.2)?
Answer: 8.012

Question: And the CSAG3 expression fc (Refseq NM_001129826.1)?
Answer: 5.871

Question: What about the LOC399940 expression fc (Refseq NM_001136118.1) of the same substance?
Answer: 4.727

Question: What about the LOC440563 expression fc (Refseq NM_001136561.1) of the same substance?
Answer: 5.312

Question: What about the FAM90A7 expression fc (Refseq NM_001136572.1) of the same substance?
Answer: 3.199

Question: And the CYCSL1 expression fc (Refseq NR_001561.1)?
Answer: 2.506

Question: What about the MGC10997 expression fc (Refseq NR_001565.1) of the same substance?
Answer: 2.426

Question: What about the FTHL3 expression fc (Refseq NR_002201.1, cultured human skeletal muscle) of the same substance?
Answer: −2.577

Question: What about the FTHL11 expression fc (Refseq NR_002204.1, cultured human skeletal muscle) of the same substance?
Answer: −2.085

Question: And the FTHL12 expression fc (Refseq NR_002205.1, cultured human skeletal muscle)?
Answer: −1.948

Question: What about the RPPH1 expression fc (Refseq NR_002312.1) of the same substance?
Answer: 2.037

Question: And the RFPL1S expression fc (Refseq NR_002727.1)?
Answer: 8.396

Question: And the SNORD56 expression fc (Refseq NR_002739.1)?
Answer: 1.855

Question: And the “fc of TRIM78P (expression array)” value (Refseq NR_002777.2)?
Answer: −0.9991

Question: And the HNRPA1L-2 expression fc (Refseq NR_002944.2)?
Answer: 1.921

Question: And the RMRP expression fc (Refseq NR_003051.2)?
Answer: 2.267

Question: What about the “fc of LOC400759 (expression array)” value (Refseq NR_003133.1) of the same substance?
Answer: −0.7622

Question: And the HNRPDL expression fc (Refseq NR_003249.1)?
Answer: 2.175

Question: And the SDHALP1 expression fc (Refseq NR_003264.1)?
Answer: 3.276

Question: What about the RN5S9 expression fc (Refseq NR_023371.1) of the same substance?
Answer: 4.191

Question: What about the KIAA0114 expression fc (Refseq NR_024031.1) of the same substance?
Answer: 1.841

Question: And the NCRNA00092 expression fc (Refseq NR_024129.1)?
Answer: 2.395

Question: And the MIR503 expression fc (Refseq NR_030228.1)?
Answer: 1.91

Question: What about the MIR2278 expression fc (Refseq NR_031755.1) of the same substance?
Answer: 2.412

Question: What about the USP41 fc (Refseq XM_036729.5) of the same substance?
Answer: −1.127

Question: What about the TRIM64 expression fc (Refseq XM_061890.11) of the same substance?
Answer: 4.943

Question: And the LOC136157 expression fc (Refseq XM_069743.3)?
Answer: 8.299

Question: What about the LOC196120 expression fc (Refseq XM_114987.3) of the same substance?
Answer: 8.179

Question: And the LOC646066 expression fc (Refseq XM_116384.2)?
Answer: 4.391
